The source of these data is PubChem BioAssay AID1259333 (Broad Institute, 2017).

Several values for one entry are separate records, joined by “and”; a condition that tells them apart may be missing. Equal entries are not always repeated. Activity calls are given as the source filed them. No rule for the calls is given here; tested in parental BL2 cells.

One test has as its system cytotoxicity, CellTiter-Glo ATP luminescence. Description: loss of cell viability by ATP content – CellTiter-Glo, cytotoxicity control, dose response (AID 1259333).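 As to activity change, negative = cytotoxicity: 0% = vehicle neutral controls and -100% = reference inhibitor positive controls.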
Conditions: not given
Consider `CC(C)Cc1ccc(C(C)CC2=CCC(CN(C)C)C2=O)cc1` (stereo not given), for which the half-maximal activity concentration (AC50) (commonly the concentration giving half of the maximal activity seen) is 3.42 µM.
The same measure, in the same setting: with `CCc1cc2c(=O)c(-c3ccc4c(c3)OCCO4)coc2c(CN2CCCCC2C)c1O` (stereo not given) the figure was 8.84 µM; with `C[C@H]1CN([C@@H](C)CO)C(=O)c2ccccc2-c2ccccc2CO[C@@H]1CN(C)Cc1ccccc1C(F)(F)F`, 10.5 µM.

Tested on in the next test: not listed separately
Described as above. The note with it: cytotoxicity, CellTiter-Glo ATP luminescence; at 3 µM (top of the series). For orientation: ATP-based viability assays read luminescence as a measure of living cells.
In the case of `O=C(Nc1ccccc1F)N1C[C@@H]2N[C@H](C1)C2c1ccc(/C=C/c2ccccc2)cc1` (stereo not given in full), the activity change, negative = cytotoxicity is 21.6% (inactive).

Staying with this test, now noted: cytotoxicity, CellTiter-Glo ATP luminescence; at 3.5 µM (top of the series).
As to `CC(C)(C)c1cc(/C=C(\C#N)C(N)=S)cc(C(C)(C)C)c1O`, the activity change, negative = cytotoxicity is 26.8% (inactive).
Take `C[C@@H]1CN([C@@H](C)CO)C(=O)Cc2cc(NS(=O)(=O)c3ccccc3)ccc2O[C@H]1CN(C)Cc1ccc(Cl)c(Cl)c1`: the activity change, negative = cytotoxicity was 24.1% (inactive).
On the same count and under the same terms, with `Cc1ccccc1NC(=O)c1nc(S(C)(=O)=O)ncc1Cl` the figure was 64.5% (inactive); with `O=C1C=CC(=O)c2c(O)c(N3CCN(CCOCCO)CC3)c(Br)c(O)c21`, 104% (inactive); with `Cc1[nH]c2ccccc2c1C(c1ccccn1)N1CCC(C(N)=O)CC1` (stereo not given), 29.7% (inactive).

The same test, now with this note: cytotoxicity, CellTiter-Glo ATP luminescence; at 9 µM (top of the series).
For the compound `C[C@@H]1CN([C@H](C)CO)C(=O)c2c(c3ccccc3n2C)-c2ccccc2CO[C@@H]1CN(C)S(=O)(=O)c1ccccc1C#N`, the activity change, negative = cytotoxicity is 42.3% (inactive).

Still in this test, the particulars now being: cytotoxicity, CellTiter-Glo ATP luminescence; at 10 µM (top of the series).
Turning to `CC1(C)C(=O)C=C[C@@]2(C)C1C=C[C@]1(C)C2CC[C@@]2(C)[C@H](c3ccoc3)OC(=O)[C@H]3O[C@]321` (stereo not given in full), the activity change, negative = cytotoxicity is 15.6% (inactive).
Same read-out and setting: next, `C=C1C(=O)OC2CC1C(O)CC(C)=CCCC(C)=CC(O)CC2C` (stereo not given): 35.5% (inactive).
Still for that read-out and setting: with `CC1=CC(=O)c2ccccc2C1=O` the figure was 36.2% (inactive); with `CCN1C(=O)C(CC(=O)Nc2ccc(OC)cc2)N(CCc2ccc(F)cc2)C1=S` (stereo not given), 24.7% (inactive).
Turning to `O=C(CNCCO)N1N=C(c2cccs2)CC1c1cccs1` (stereo not given), the activity change, negative = cytotoxicity was 18.9% (inactive).
On the same count and under the same terms, with `C[C@@H]1CN([C@H](C)CO)C(=O)c2c(c3ccccc3n2C)-c2ccccc2CO[C@H]1CN(C)C(=O)Nc1ccccc1C(F)(F)F` the figure was -16.3% (inactive); with `Oc1cc(O)cc(/C=C/c2ccc(O)c(O)c2)c1`, 129% (inactive); with `C/C=C/c1ccc(C2[C@H]3CNC[C@@H]2N3Cc2cccc(OC)c2)cc1` (stereo not given in full), 18% (inactive).
On the same count and under the same terms, with `N#CC(C#N)=NNc1cccc(Cl)c1` the figure was 69.4% (inactive); with `O=C(C1CCOCC1)N1CC(=O)N2[C@H](C1)[C@@H](c1ccc(C#CCc3ccccc3)cc1)[C@@H]2CO`, 47.9% (inactive); with `CCc1cnc(N2[C@H](C#N)[C@H](c3ccc(C#Cc4ccccc4F)cc3)[C@H]2CO)s1`, 12.3% (inactive).
Same read-out and setting: next, `N#C[C@@H]1[C@H](c2ccc(C#Cc3ccc(F)cc3)cc2)[C@@H](CO)N1C(=O)C1CCC1`: 5.33% (inactive); `O=C(Cc1ccccc1)N1CC[C@@H]2[C@H]1c1cc(-c3cccc(F)c3)ccc1N[C@@H]2CO`: 8.92% (inactive).
For `CCc1cc2c(COC(=O)c3cc(S(=O)(=O)N4CCOCC4)ccc3F)cc(=O)oc2cc1O`, the activity change, negative = cytotoxicity is 64% (inactive).
`O=C(NC(=S)/C(=C1\CCCCCN1)[N+](=O)[O-])c1ccccc1`: the activity change, negative = cytotoxicity was 16.4% (inactive).
On the same count and under the same terms, with `CCCCC1C(=O)NC(=S)N(C)C1=O` (stereo not given) the figure was 33.7% (inactive); with `N#C[C@@H]1[C@@H](c2ccc(C#CC3CCCCC3)cc2)[C@H](CO)N1C(=O)Nc1ccc(F)cc1`, 28.9% (inactive).
Still for that read-out and setting: with `CC1=CC(=O)c2c(O)cccc2C1=O` the figure was 112% (inactive); with `Cn1c(CO)nc2cc(N)ccc21`, 34.6% (inactive); with `O=C(C1CCCC1)N1CC(=O)N2[C@@H](CO)[C@@H](c3ccc(C#CCc4ccccc4)cc3)[C@@H]2C1`, 53.6% (inactive).
Still for that read-out and setting: with `C=C1C(=O)OC2C=C(CO)C3OC3C3OC3(C)CC(OC(=O)/C(=C/C)COC(C)=O)C12` (stereo not given) the figure was 17.5% (inactive); with `O=C1C(=Cc2ccccc2[N+](=O)[O-])Cc2ccccc21`, 161% (inactive); with `Fc1ccccc1/C=C1\CCCC2=C1Nc1nnnn1C2c1ccccc1F` (stereo not given), 12.3% (inactive).
In the case of `COc1ccc(CN(CCC(c2ccc(F)cc2)C2CCOC(C)(C)C2)C(=O)c2ccco2)cc1` (stereo not given), the activity change, negative = cytotoxicity is 263% (inactive).
Same read-out and setting: next, `N#C[C@H]1[C@H](c2ccc(C#Cc3ccccc3F)cc2)[C@H](CO)N1C(=O)C1CC1`: 91.9% (inactive); `Cc1cc(C(=O)COC(=O)c2cccn2C)c(C)n1Cc1ccco1`: 23.8% (inactive); `COc1ccc(S(=O)(=O)N(C)C[C@@H]2Oc3ccc(NC(=O)Nc4ccc(C(F)(F)F)cc4)cc3C(=O)N([C@H](C)CO)C[C@H]2C)cc1`: 22.7% (inactive).
On the same count and under the same terms, with `COc1ccc(Cl)cc1NC(=O)Nc1cc(C)nc2ccccc12` the figure was 60.2% (inactive); with `O=C(c1ccc(F)cc1)N1C[C@@H]2N[C@H](C1)C2c1ccc(/C=C/c2ccccc2)cc1` (stereo not given in full), 12.7% (inactive) and 35.5% (inactive); with `Cc1ccc(OC(=O)N(C)C[C@@H]2OCc3ccccc3-c3c(n(C)c4ccccc34)C(=O)N([C@@H](C)CO)C[C@H]2C)cc1`, 5.02% (inactive).
The same measure, in the same setting: with `COc1ccc(CN2CC3(CN(S(=O)(=O)c4ccc(C)cc4)C3)c3c([nH]c4cc(OC)ccc34)[C@H]2CO)cc1` the figure was 20.2% (inactive); with `COc1ccc(C#Cc2ccc([C@@H]3[C@H](CO)N4CCCCN(C(=O)Nc5cccc(F)c5)C[C@@H]34)cc2)cc1`, 50.4% (inactive).
For the compound `CC1(C)C(=O)C=C[C@@]2(C)C1C(=O)C(=O)[C@]1(C)C2CC[C@@]2(C)[C@H](c3ccoc3)C[C@H]3O[C@]321` (stereo not given in full), the activity change, negative = cytotoxicity is 161% (inactive).
Regarding `O=C(Nc1nc2ccccc2s1)c1ccc(OCC2CCCO2)cc1` (stereo not given), the activity change, negative = cytotoxicity was 24.7% (inactive).
Still for that read-out and setting: next, `C[C@@H]1CN([C@@H](C)CO)C(=O)c2ccccc2-c2ccccc2CO[C@@H]1CN(C)C(=O)c1cc(Cl)cc(Cl)c1`: 38.8% (inactive).
Still for that read-out and setting: with `Cc1cnc(NC(=O)c2ccc(OCC3CCCO3)cc2)s1` (stereo not given) the figure was 5.83% (inactive); with `CC(=O)OCC(=O)C1(O)CCC2C3CCC4=CC(=O)CCC4(C)C3(Cl)C(O)CC21C` (stereo not given), 25.5% (inactive).
`Cc1csc(NC(=O)c2ccc(N3CCCC3=O)cc2)n1`: the activity change, negative = cytotoxicity was 23.5% (inactive).

The same test, now with this note: cytotoxicity, CellTiter-Glo ATP luminescence; at 11 µM (top of the series).
For the compound `C[C@@H]1CN([C@H](C)CO)C(=O)Cc2cc(NC(=O)Cc3cn(C)c4ccccc34)ccc2O[C@H]1CN(C)Cc1ccc(C(F)(F)F)cc1`, the activity change, negative = cytotoxicity was 6.35% (inactive).
Take `COc1ccc(-c2ccc([C@H]3[C@@H](C#N)N(C(=O)c4cccc(F)c4)[C@H]3CO)cc2)cc1`: the activity change, negative = cytotoxicity was 24% (inactive).
